{"source": "patent US7868011B2", "about": "(General Atomics, priority 2003, dated 2011)", "key": {"[1]": {"tested_on": "C57BL/6 spleen cells stimulated by mitomycin-treated Balb/c spleen cells", "test": "Mixed lymphocyte reaction (MLR) proliferation assay", "assay_type": "cell-based, mouse", "conditions": "3-day culture", "description": "Balb/c mouse spleen cells were prepared in 10^7 cells/ml suspension, cultured 2 h with 50 μg/ml of mitomycin. Then cells were washed and cultured together with fresh C57/B6 mice splenocytes equally in a final concentration of 1.0×10^6 cells/ml in the presence or absence of various concentrations of DZ2002. After 48 hour incubation, cells were pulsed with 0.5 μCi/well of [^3H]-thymidine and cultured for another 24 hours. The cells were then harvested onto glass fiber filters and the incorporated radioactivity was counted using a Beta Scintillator (MicroBeta Trilux, PerkinElmer Life Sciences)."}, "[2]": {"tested_on": "Mouse splenic lymphocytes", "test": "MTT cytotoxicity assay of the splenic lymphocytes", "assay_type": "cell-based", "conditions": "0.1-10 μmol/L, two days of culture", "description": "Cytotoxicity was assessed with MTT assay. Mouse splenic lymphocytes were incubated in a 96-well plate at 9×10^4 cells/180 μl/well in a humidified CO2 incubator at 37° C. for 48 hours in the presence or absence of various concentrations of DZ2002. Fifteen (15) μl of 5 mg/ml of MTT was pulsed 4 h prior to end of the culture […], and then 80 μl solvent (10% SDS, 50% N,N-dimethy formamide, PH7.2) was added. Incubate for 7 h and read OD590 at a microplate reader (Bio-rad Model 550 Japan)."}, "[3]": {"tested_on": "TG induced peritoneal macrophages", "test": "cytokine production from TG induced peritoneal macrophages (ELISA)", "assay_type": "cell-based, BALB/C mice", "conditions": "IFN-γ and LPS 24 h, 0.1-10 μmol/L", "description": "Peritoneal exudate cells were induced in BALB/C mice by an intraperitoneal injection of 0.5 ml of 3% TG. After 4 days, the peritoneal exudates cells were harvested by sterile lavage.\nMurine peritoneal exudate cells (6.25×10^5) were cultured in 24-well plates in a volume of 1 ml/well for 2 hours. In adherent cells were washed by ice cold RPMI 1640 and adherent cells were culture in a volume of 2 ml/well in the presence of IFN-γ (2.5 ng/ml) and LPS (1 μg/ml) in the presence or absence of various concentrations of DZ2002. After 24 h, cell-free supernatant was collected and frozen at −20° C. The concentrations of IL-12p40, IL-12p70, IL-10 and TNF-α were determined by ELISA.\nCytokines produced by peritoneal macrophages were assessed following a 24-h incubation with IFN-γ at 25 U/ml and LPS at 1 μg/ml. Resident peritoneal cells produce low levers of cytokines except for some IL-10 with incubated with IFN-γ and LPS (data not shown). As for TG induced peritoneal macrophages, DZ2002 inhibited IL-12P40 and TNF-α release, but have no effect on IL-10 production in the dose of 0.1-10 μmol/L (FIG. 5)."}, "[4]": {"tested_on": "lupus-prone MRL-Fas^lpr mice", "test": "survival of lupus-prone MRL-Fas lpr mice", "assay_type": "in vivo, mouse", "conditions": "50 mg/kg/day i.p.", "description": "MRL-Fas^lpr female mice were provided by The Jackson Laboratory (Bar Harbor, Me.). The mice were housed in specific pathogen-free (SPF) conditions with room temperature of 24±2° C., 12 hr light/dark cycle, and provided with sterile food and water ad libitum. Starting at approximately 6 weeks of age, MRL-Fas^lpr mice (n=11-13/group) were dosed i.p. every day with either DZ2002 (50 mg/kg/day) or with vehicle (0.4% DMSO/PBS) for ˜9 months and followed for survival. Mouse survival data were analyzed by the Kaplan-Meir method with comparison by the log-rank test; p<0.05 was considered to be significant."}, "[5]": {"tested_on": "primary antibody production in response to SRBC", "test": "Quantitative hemolysis of sheep red blood cells (QHS) assay", "assay_type": "in vivo, Balb/c mice", "conditions": "7-day intraperitoneal injection", "description": "Female Babl/c mice were immunized by intraperitoneal injection with 0.2 ml of 16.7% of SRBC on day 4. Vehicle, Dexamethasone and DZ2002 were administrated on each group (n=6) by intraperitoneal injection on 7 consecutive days of 1-7. On day 8, mice were sacrificed and made a mixed suspension of spleen cells of 2×10^6 cells/ml. 1 ml of cell suspension was incubated with 1 ml of 0.5% SRBC and 1 ml of 1:10 dilution of guinea pig complement for 1 h at 37° C., then centrifuged (3 min, 3000 g) and determined the supernatant hemolysis at 413 nm, according to Simpson et al., J. Immunol. Methods., 21(1-2):159-65. (1978) with some modifications. Each group was triplicated."}, "[6]": {"molecular_target": "intracellular AdoHcy hydrolase (Rattus norvegicus, UniProt P10760)", "sequence (P10760 whole entry)": "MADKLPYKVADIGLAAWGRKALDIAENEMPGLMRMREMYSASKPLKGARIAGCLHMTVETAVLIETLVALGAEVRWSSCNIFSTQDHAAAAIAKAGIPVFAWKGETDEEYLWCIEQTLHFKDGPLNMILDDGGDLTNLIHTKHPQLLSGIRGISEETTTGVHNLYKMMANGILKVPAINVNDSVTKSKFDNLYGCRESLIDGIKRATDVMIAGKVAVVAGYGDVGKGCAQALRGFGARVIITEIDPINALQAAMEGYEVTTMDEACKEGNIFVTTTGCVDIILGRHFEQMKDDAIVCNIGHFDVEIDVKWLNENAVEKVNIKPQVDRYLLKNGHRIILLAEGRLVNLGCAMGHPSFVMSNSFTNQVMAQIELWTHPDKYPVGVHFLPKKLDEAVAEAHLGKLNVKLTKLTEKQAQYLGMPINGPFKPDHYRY", "conditions": "intracellular enzyme; cited from earlier work"}, "SAH hydrolase": {"molecular_target": "SAH hydrolase (Rattus norvegicus, UniProt P10760)", "sequence (P10760 whole entry)": "as above", "conditions": "cited from earlier work"}}, "note": "pKi: −log10 of the molar value."}
{"smiles": "COC(=O)C(O)CCn1cnc2c(N)ncnc21", "note": "(stereo not drawn) [DZ2002, Methyl 4-(Adenin-9-yl)-2-hydroxybutanoate]", "values": [{"measurement": "suppression of MLR", "setting": "[1]; 0.1 μmol/L", "value": 40.2, "unit": "%"}, {"measurement": "suppression of MLR", "setting": "[1]; 1 μmol/L", "value": 36.9, "unit": "%"}, {"measurement": "suppression of MLR", "setting": "[1]; 10 μmol/L", "value": 42.3, "unit": "%"}, {"measurement": "cytotoxicity to spleen cells (MTT, OD)", "setting": "[2]", "value": "no cytotoxicity"}, {"measurement": "IL-10 production", "setting": "[3]", "value": "no effect"}, {"measurement": "age at which extension in survival was first observed", "setting": "[4]", "value": "approximately 160 days of age"}, {"measurement": "inhibition of QHS", "setting": "[5]; 0.08 mg/kg", "value": 24.5, "unit": "%"}, {"measurement": "inhibition of QHS", "setting": "[5]; 2 mg/kg", "value": 18.4, "unit": "%"}]}
{"smiles": "C[C@@H]1C[C@H]2[C@@H]3CCC4=CC(=O)C=C[C@]4(C)[C@@]3(F)[C@@H](O)C[C@]2(C)[C@@]1(O)C(=O)CO", "note": "[Dethamethasone, reference compound]", "values": [{"measurement": "inhibition of QHS", "setting": "[5]; 5 mg/kg", "value": 38.1, "unit": "%"}]}
{"smiles": "Nc1ncnc2c1ncn2C[C@H](O)CO", "note": "[(S)-DHPA, (S)-9-(2,3-dihydroxypropyl)adenine]", "values": [{"measurement": "type of inhibition of intracellular AdoHcy hydrolase", "setting": "[6]", "value": "irreversible inhibitor"}, {"measurement": "type of inhibition of isolated AdoHcy hydrolase", "setting": "SAH hydrolase; isolated enzyme", "value": "reversible inhibitor"}, {"measurement": "pKi", "setting": "SAH hydrolase; read-out: Ki value against SAH hydrolase", "value": 5.46}]}
